Counter-ions that a name gives are not always drawn.
Columns and labels:
equine serum BChE = target: T1, equine serum BChE (Equus caballus, UniProt P81908); test: biochemical; details: mean ± SEM, n = 3; for IC50: 5 min incubation
T1 construct: equine serum BChE; purchased Sigma; host or cells: equine serum
Description: (§1) Reagents blanks consisted of reaction mixtures without substrates. […] Final enzyme and substrate concentrations were 0.02 unit/mL and 1 mM, respectively. Assays were carried out with a blank containing all constituents except porcine CES to assess non-enzymatic hydrolysis. The measurements were performed on a FLUOstar OPTIMA multifunctional microplate reader (BMG LABTECH, Ortenberg, Germany). The compounds were dissolved in DMSO. The incubation mixture contained 2% (v/v) of the solvent. […] The sample of the appropriate enzyme was incubated with the test compound for 5 min, and then the residual enzymatic activity was determined. Each experiment was performed in triplicate. […] Each experiment was performed in triplicate. The IC50 values were calculated with Origin 6.1 software.

[1] = test system: tubulin and microtubule-associated proteins (Tb+MAP); test: GTP-dependent Tb+MAP polymerization; type: biochemical, mouse; details: 100 µM compound; for Rate of Tb+MAP Polymerization (dA355/dt): 0.1 mM GTP, 37 °C
Text: A crude fraction of tubulin and microtubule-associated proteins (Tb+MAP) was isolated from mouse brain tissue by a polymerization–depolymerization method. The procedure of mouse euthanasia using cervical dislocation for Tb+MAP preparation is in compliance with the Guidelines for Animal Experiments, which were approved by the local bioethics committee of the IPAC RAS. The freshly dissected brain was immediately placed on ice, cleared of meninges and surface blood vessels, and washed with cold buffer A (50 mM Tris-HCl, pH 6.9 at 4 °C, 2 mM EGTA). The extracted brain tissue was homogenized under ice cooling in the same buffer using a Potter S homogenizer (Sartorius). The resulting homogenate was centrifuged at 10,000× g for 30 min on an Avanti 25 centrifuge (Beckman) using a JA-14 rotor for the precipitation of non-ruptured cells. The precipitate was discarded, and the supernatant was again centrifuged at 100,000× g for 60 min at 4 °C on an Optima MAX XP centrifuge (Beckman) using a MLA-50 rotor. The precipitate was again discarded. The protein concentration in the supernatant was determined by the Bradford assay using the Bio-Rad Protein Assay kit (Bio-Rad, Hercules, CA, USA) according to manufacturer’s instructions. The resulting supernatant was a cytosolic fraction enriched in microtubular proteins (Tb and MAP).
The Tb+MAP preparation was centrifuged at 5000× g for 10 min at 4 °C immediately before polymerization in order to remove denatured and aggregated protein molecules by precipitation. The Tb+MAP polymerization was performed at 37 °C in buffer A in the presence of 0.1 mM GTP after addition of 100 µM of test compound or the same volume of vehicle (DMSO). The protein concentration in the sample was 0.2 mg/mL. The polymerization kinetics was monitored on a Victor 3 or EnVision microplate reader (Perkin Elmer, USA) at 355 nm and the stabilized rate of polymerization after the first wave was measured (dA355/dt).

porcine liver CES = target: T2, porcine liver CES (Sus scrofa, UniProt Q29550); test: CES inhibition, 4-nitrophenyl acetate hydrolysis; type: biochemical; details: for inhibition at 20 µM: read-out: % of inhibition of CES with 20 µM concentration of the compound
T2 sequence (Q29550 19-566): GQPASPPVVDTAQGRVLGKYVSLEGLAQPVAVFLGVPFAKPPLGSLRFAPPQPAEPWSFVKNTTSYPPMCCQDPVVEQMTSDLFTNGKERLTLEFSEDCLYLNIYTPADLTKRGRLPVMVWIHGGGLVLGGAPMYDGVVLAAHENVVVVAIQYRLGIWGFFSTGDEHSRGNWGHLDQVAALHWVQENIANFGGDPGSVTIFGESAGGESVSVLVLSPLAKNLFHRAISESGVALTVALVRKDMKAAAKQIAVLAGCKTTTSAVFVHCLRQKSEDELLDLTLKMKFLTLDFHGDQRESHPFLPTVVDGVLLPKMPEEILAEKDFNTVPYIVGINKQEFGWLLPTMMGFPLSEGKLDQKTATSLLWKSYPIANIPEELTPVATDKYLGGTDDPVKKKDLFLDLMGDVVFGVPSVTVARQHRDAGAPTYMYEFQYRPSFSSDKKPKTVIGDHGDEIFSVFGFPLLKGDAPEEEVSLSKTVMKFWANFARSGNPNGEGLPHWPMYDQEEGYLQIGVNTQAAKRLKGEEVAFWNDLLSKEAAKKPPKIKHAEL
Description: as §1

[2] = target: T3, ifenprodil-binding site of NMDA receptor (NR2B subunit) (Rattus norvegicus, UniProt P35439+Q00960); test: Radioligand binding assay, [3H]ifenprodil displacement
T3 construct: from tissue; host or cells: rat hippocampus membranes
Description: (§2) The effect of the test compounds on radioligand binding to NMDA receptors was evaluated by a modified method, as previously reported [83]. The following two radioligands were used: [^3H] […] A hippocampal membrane preparation for the radioligand binding assay was made as described previously [86, 87]. The obtained membrane pellet was resuspended in a working buffer (5 mM HEPES/4.5 mM Tris, pH 7.6 at 4 °C) in a ratio of 1:5 and stored in liquid nitrogen. The reaction mixture (the final volume was 0.5 mL) contained the working buffer (200 μL), a 50 nM radioligand solution (50 μL) and the membrane suspension (250 μL). The nonspecific binding was evaluated in the presence of 1 mM of the unlabeled ligand (50 μL).
(§3) For the binding assay, the reaction mixture was incubated at room temperature for 2 h. After the incubation, the samples were filtered through GF/B glass fiber filters (Whatman), washed with the working buffer, dried and transferred to scintillation vials. Then the scintillation fluid (5 mL), which is composed of diphenyloxazole (PPO) (4 g) and bis(5-phenyl-2-oxazolyl)benzene (POPOP) (0.2 g) in toluene (1 L) were added to the vials.
(§4) The effect of the test compounds on the binding of [^3H] […] The values of Ki were calculated according to a previously described method [88].

[3] = test system: isolated rat liver mitochondria; test: Ca2+-induced mitochondrial swelling (MPT pore opening); type: biochemical; details: 30 µM compound; 12.5 µM Ca2+; 10 mM glutamate, 2 mM malate, 10 mM succinate; percentage relative to the reference compound
Description: Experiments were performed using outbred male rats weighing 200–220 g. The animals were housed under standard vivarium conditions in a normal day/night cycle and had ad libitum access to water and food. The procedure of rat euthanasia using carbon dioxide (CO2) inhalation for mitochondria preparation is in compliance with the Guidelines for Animal Experiments, which were approved by the local bioethics committee of the IPAC RAS.
Rat liver mitochondria were isolated by conventional differential centrifugation. Membrane potential of rat liver mitochondria was measured using the potential-sensitive fluorescent probe Safranine A on a Victor 3 multilabel plate reader (Perkin Elmer, Waltham, MA, USA). The fluorescence was recorded at λex = 485 nm and λem = 590 nm. Mitochondrial swelling was measured by spectrophotometry in 96-well clear bottom plates on a Victor 3 microplate reader (Perkin Elmer, Waltham, MA, USA) at 620 nm; CaCl2 was added to induce mitochondrial swelling (MPT opening).

human erythrocyte AChE = target: T4, human erythrocyte AChE (Homo sapiens, UniProt P22303); test: biochemical; details: mean ± SEM, n = 3; for inhibition at 20 µM: read-out: % of inhibition of AChE with 20 µM concentration of the compound, 20 µM compound
T4 construct: commercial human erythrocyte AChE; purchased Sigma; host or cells: human erythrocytes

[4] = target: T5, MK-801-binding (intrachannel) site of NMDA receptor (Rattus norvegicus, UniProt P35439); test: Radioligand binding assay, [3H]MK-801 displacement
T5 construct: from tissue; host or cells: rat hippocampus membranes
Description: as §2, §3, §4

PAS of EeAChE = target: T6, PAS of EeAChE (Electrophorus electricus, UniProt O42275); type: binding; details: 20 µM compound; 7 µM EeAChE, 8 µM propidium iodide; mean ± SEM, n = 3
T6 construct: AChE from Electrophorus electricus (EeAChE, type VI-S, lyophilized powder); purchased Sigma-Aldrich type VI-S; host or cells: Electrophorus electricus tissue
T6 sequence (O42275 24-633): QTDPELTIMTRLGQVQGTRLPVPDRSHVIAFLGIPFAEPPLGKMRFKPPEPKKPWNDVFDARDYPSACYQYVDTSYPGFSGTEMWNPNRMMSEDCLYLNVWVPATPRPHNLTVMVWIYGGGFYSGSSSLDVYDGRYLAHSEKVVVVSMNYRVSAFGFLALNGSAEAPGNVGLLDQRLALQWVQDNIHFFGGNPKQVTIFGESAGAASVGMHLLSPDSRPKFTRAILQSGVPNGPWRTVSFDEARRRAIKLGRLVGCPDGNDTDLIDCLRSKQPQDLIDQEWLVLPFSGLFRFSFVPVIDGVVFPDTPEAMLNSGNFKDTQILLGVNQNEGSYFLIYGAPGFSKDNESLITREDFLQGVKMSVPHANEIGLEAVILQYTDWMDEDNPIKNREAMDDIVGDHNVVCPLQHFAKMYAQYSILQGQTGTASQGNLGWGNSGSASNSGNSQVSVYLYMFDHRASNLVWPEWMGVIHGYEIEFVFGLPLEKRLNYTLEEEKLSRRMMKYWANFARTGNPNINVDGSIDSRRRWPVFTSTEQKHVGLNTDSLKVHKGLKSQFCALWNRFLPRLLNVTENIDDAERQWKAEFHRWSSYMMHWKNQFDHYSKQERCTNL
Description: The compounds were evaluated as potential inhibitors of proaggregation activity of AChE by measuring the displacement of propidium iodide from the PAS of the enzyme [53] using a fluorescence method [28]. AChE from Electrophorus electricus (EeAChE, type VI-S, lyophilized powder, Sigma-Aldrich, St. Louis, MO, USA) was used for consistency with our previous studies [8, 13, 63, 74]. The fluorescence intensity of propidium iodide bound to AChE increases several-fold. A decrease in the fluorescence intensity in the presence of the test compounds is indicative of their ability to bind to the AChE PAS and, correspondingly, to inhibit β-amyloid aggregation.
EeAChE (7 µM) was incubated with 20 µM of the test compound in 1 mM Tris-HCl buffer, pH 8.0, at 25 °C for 15 min. Then a solution of propidium iodide was added (final concentration 8 µM), the mixture was incubated for 15 min, and the fluorescence spectrum was recorded (excitation at 530 nm and emission at 600 nm). […] The blank contained propidium iodide at the same concentration in 1 mM Tris-HCl buffer, pH 8.0 at 25 °C. The measurements were performed in triplicate on a FLUOstar OPTIMA multifunctional microplate reader.
The degree of displacement of propidium iodide from the PAS of AChE (% displacement) was calculated by the equation:% displacement = 100 − (IFAChE + Propidium + inhibitor/IFAChE + Propidium) × 100, where IFAChE + Propidium is the fluorescence intensity of propidium iodide bound to EeAChE in the absence of the test compound (taken as 100%), and IFAChE + Propidium + inhibitor is the fluorescence intensity of propidium iodide bound to EeAChE in the presence of the test compound.

T1 sequence (P81908 whole entry): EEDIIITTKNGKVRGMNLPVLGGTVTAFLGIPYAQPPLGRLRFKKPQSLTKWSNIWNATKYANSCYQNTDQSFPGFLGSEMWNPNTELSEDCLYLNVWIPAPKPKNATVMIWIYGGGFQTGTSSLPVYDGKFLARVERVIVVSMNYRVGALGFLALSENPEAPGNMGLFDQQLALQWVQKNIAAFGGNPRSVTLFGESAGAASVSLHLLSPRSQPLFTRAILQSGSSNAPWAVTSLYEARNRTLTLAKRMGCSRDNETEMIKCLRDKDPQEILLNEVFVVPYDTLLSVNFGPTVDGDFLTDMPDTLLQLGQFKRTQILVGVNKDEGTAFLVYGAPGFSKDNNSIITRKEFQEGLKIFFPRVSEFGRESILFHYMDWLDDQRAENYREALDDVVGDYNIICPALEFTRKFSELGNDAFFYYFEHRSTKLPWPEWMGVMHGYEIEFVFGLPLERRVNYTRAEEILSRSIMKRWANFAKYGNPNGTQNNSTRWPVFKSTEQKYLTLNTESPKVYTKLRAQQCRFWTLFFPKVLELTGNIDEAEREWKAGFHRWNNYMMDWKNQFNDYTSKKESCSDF
T3 sequence (Q00960 27-1482, other chains not shown): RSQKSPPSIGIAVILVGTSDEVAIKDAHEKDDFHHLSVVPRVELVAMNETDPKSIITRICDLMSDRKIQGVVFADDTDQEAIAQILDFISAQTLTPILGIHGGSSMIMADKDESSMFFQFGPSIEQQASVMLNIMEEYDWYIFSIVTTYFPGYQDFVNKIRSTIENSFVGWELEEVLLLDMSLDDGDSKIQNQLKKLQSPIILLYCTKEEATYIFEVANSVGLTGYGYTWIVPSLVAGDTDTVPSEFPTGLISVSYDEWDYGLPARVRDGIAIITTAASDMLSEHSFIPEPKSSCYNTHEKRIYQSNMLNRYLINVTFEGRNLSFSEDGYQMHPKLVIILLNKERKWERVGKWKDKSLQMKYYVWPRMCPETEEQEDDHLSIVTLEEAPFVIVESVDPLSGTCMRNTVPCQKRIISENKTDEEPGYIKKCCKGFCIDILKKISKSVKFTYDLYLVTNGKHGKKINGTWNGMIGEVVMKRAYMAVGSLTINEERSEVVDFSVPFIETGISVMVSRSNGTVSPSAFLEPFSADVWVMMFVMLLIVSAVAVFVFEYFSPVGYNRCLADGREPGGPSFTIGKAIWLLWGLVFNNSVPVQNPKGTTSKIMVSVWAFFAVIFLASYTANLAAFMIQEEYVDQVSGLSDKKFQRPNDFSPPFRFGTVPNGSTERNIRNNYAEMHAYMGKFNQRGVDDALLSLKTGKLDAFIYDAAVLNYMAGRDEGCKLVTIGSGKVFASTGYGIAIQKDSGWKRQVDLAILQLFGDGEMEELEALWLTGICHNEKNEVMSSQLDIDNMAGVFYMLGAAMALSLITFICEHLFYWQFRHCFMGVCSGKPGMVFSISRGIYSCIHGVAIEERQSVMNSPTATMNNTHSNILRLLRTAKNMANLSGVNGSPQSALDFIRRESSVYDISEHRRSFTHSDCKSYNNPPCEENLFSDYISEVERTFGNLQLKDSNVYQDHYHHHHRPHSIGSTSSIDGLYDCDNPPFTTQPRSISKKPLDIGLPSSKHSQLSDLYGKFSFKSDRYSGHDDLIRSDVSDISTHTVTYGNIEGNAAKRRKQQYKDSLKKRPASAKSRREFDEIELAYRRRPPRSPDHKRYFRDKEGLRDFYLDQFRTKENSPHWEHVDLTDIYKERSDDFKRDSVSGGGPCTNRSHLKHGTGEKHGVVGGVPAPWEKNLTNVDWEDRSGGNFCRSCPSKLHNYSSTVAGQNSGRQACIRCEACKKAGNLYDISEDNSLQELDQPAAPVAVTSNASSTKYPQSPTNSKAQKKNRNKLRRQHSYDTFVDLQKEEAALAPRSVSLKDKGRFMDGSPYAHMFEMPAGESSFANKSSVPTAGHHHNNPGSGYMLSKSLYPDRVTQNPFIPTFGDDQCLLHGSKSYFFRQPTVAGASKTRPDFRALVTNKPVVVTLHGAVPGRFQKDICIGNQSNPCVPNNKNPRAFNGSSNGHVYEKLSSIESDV
T4 sequence (P22303 32-617 isoform P22303-2 limits assumed): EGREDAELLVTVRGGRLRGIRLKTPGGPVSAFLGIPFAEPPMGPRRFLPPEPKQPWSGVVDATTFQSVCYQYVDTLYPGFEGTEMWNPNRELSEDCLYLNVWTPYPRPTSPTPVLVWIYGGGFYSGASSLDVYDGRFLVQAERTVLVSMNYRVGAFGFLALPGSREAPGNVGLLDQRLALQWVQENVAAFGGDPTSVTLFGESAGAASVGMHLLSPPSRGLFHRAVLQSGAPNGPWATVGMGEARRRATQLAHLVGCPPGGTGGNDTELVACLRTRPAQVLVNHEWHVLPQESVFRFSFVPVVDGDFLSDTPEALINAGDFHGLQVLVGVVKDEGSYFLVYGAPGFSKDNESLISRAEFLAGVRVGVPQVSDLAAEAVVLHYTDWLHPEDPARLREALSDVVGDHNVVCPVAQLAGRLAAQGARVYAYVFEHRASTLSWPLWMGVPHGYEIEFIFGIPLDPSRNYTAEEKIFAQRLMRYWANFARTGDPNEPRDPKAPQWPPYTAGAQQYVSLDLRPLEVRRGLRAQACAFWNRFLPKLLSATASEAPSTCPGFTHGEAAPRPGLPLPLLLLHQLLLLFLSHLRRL

Q: Which results are given for `CN1CCc2c(c3cc(F)ccc3n2CC(=O)NC23CC4CC(C)(CC(C)(C4)C2)C3)C1.Cl` [Compound 8c, N-(3,5-Dimethyladamantan-1-yl)-2-(8-fluoro-2-methyl-3,4-dihydro-1H-pyrido[4,3-b]indol-5(2H)-yl)acetamide hydrochloride]?
A: IC50 (equine serum BChE): 6 ± 0.06 µM; Increase of the rate of Tb+MAP polymerization, factor [1]: > 3.5; Rate of Tb+MAP Polymerization (dA355/dt) [1]: 359 ± 25%; inhibition at 20 µM (porcine liver CES): 8.4 ± 0.9%; Ki [2]: 110 ± 10.8 µM; Rate of Ca2+-Induced Mitochondrial Swelling (dA620/dt) [3]: 63 ± 25%; inhibition at 20 µM (human erythrocyte AChE): 17.3 ± 0.8%; Ki [4]: 80.6 ± 8.5 µM

Q: For `Cc1ccc2c(c1)c1c(n2CCc2ccc(C)nc2)CCN(C)C1` [dimebon, reference compound], which “Rate of Tb+MAP Polymerization (dA355/dt)” value [1] is on record?
A: 162 ± 23%

Q: What about the Ki [2] of the same compound?
A: 77.2 ± 5.7 µM

Q: And the “Rate of Ca2+-Induced Mitochondrial Swelling (dA620/dt)” value (shortened to “Rate … (dA620/dt)”) [3]?
A: 36 ± 11%

Q: What about the “% of Displacement of Propidium Iodide from the PAS of EeAChE” value (PAS of EeAChE) of the same compound?
A: 4.1 ± 0.3%

Q: What about the Ki [4] of the same compound?
A: 50.4 ± 4.3 µM

Q: What does the source list for `Cc1ccc2c(c1)c1c(n2CC(=O)NC23CC4CC(C)(CC(C)(C4)C2)C3)CCN(C)C1.Cl` [Compound 8b, 2-(2,8-Dimethyl-3,4-dihydro-1H-pyrido[4,3-b]indol-5(2H)-yl)-N-(3,5-dimethyladamantan-1-yl)acetamide hydrochloride]?
A: IC50 (equine serum BChE): 33.7 ± 3.5 µM; Rate of Tb+MAP Polymerization (dA355/dt) [1]: 314 ± 46%; inhibition at 20 µM (porcine liver CES): 6.4 ± 0.5%; Ki [2]: 89.7 ± 8.7 µM; Rate of Ca2+-Induced Mitochondrial Swelling (dA620/dt) [3]: 87 ± 33%; % of Displacement of Propidium Iodide from the PAS of EeAChE (PAS of EeAChE): 2.8 ± 0.2%; inhibition at 20 µM (human erythrocyte AChE): 17.7 ± 1.4%; Ki [4]: 55.1 ± 5.1 µM

Q: With `CN1CCc2c(c3cc(F)ccc3n2CCNC23CC4CC(CC(C4)C2)C3)C1.Cl.Cl` [Compound 4f, N-(2-(8-Fluoro-2-methyl-3,4-dihydro-1H-pyrido[4,3-b]indol-5(2H)-yl)ethyl)adamantane-1-amine dihydrochloride] as the compound, how does the IC50 (equine serum BChE) read?
A: 2.53 ± 0.1 µM

Q: And the “Increase of the rate of Tb+MAP polymerization, factor” value [1]?
A: > 3.5

Q: What about the “Rate of Tb+MAP Polymerization (dA355/dt)” value [1] of the same compound?
A: 356 ± 14%

Q: And the inhibition at 20 µM (porcine liver CES)?
A: 8.6 ± 1.7%

Q: And the Ki [2]?
A: 5.1 ± 0.5 µM

Q: And the “Rate … (dA620/dt)” value [3]?
A: 42 ± 8%

Q: And the “% of Displacement of Propidium Iodide from the PAS of EeAChE” value (PAS of EeAChE)?
A: 17.8 ± 1.5%

Q: What about the IC50 (human erythrocyte AChE; 5 min incubation) of the same compound?
A: 13.6 ± 1.3 µM

Q: And the Ki [4]?
A: 5.4 ± 0.6 µM

Q: For `CN1CCc2c(c3cc(F)ccc3n2CC(=O)NC23CC4CC(CC(C4)C2)C3)C1.Cl` [Compound 8f, N-(Adamantan-1-yl)-2-(8-fluoro-2-methyl-3,4-dihydro-1H-pyrido[4,3-b]indol-5(2H)-yl)acetamide hydrochloride], which IC50 (equine serum BChE) is on record?
A: 17.1 ± 1.3 µM

Q: And the “Rate of Tb+MAP Polymerization (dA355/dt)” value [1]?
A: 154 ± 14%

Q: And the inhibition at 20 µM (porcine liver CES)?
A: 6.2 ± 0.6%

Q: And the Ki [2]?
A: 73.8 ± 7 µM

Q: What about the “Rate … (dA620/dt)” value [3] of the same compound?
A: 61 ± 24%

Q: What about the inhibition at 20 µM (human erythrocyte AChE) of the same compound?
A: 22.1 ± 1.8%

Q: What about the Ki [4] of the same compound?
A: 47.3 ± 4.7 µM

Q: Which results are given for `CN1CCc2c(c3ccccc3n2CC(=O)NC23CC4CC(CC(C4)C2)C3)C1.Cl` [Compound 8d, N-(Adamantan-1-yl)-2-(2-methyl-3,4-dihydro-1H-pyrido[4,3-b]indol-5(2H)-yl)acetamide hydrochloride]?
A: IC50 (equine serum BChE): 26.5 ± 0.4 µM; Rate of Tb+MAP Polymerization (dA355/dt) [1]: 128 ± 15%; inhibition at 20 µM (porcine liver CES): 8.8 ± 1.2%; Ki [2]: 79.1 ± 7.1 µM; Rate of Ca2+-Induced Mitochondrial Swelling (dA620/dt) [3]: 45 ± 17%; % of Displacement of Propidium Iodide from the PAS of EeAChE (PAS of EeAChE): 1.4 ± 0.2%; inhibition at 20 µM (human erythrocyte AChE): 5.4 ± 1%; Ki [4]: 49.5 ± 4.5 µM

Q: What does the source list for `CN1CCc2c(c3ccccc3n2CC(=O)NC23CC4CC(C)(CC(C)(C4)C2)C3)C1` [Compound 8a, 3,5-Dimethyladamantan-1-yl)-2-(2-methyl-3,4-dihydro-1H-pyrido[4,3-b]indol-5(2H)-yl)acetamide hydrochloride]?
A: IC50 (equine serum BChE): 9.66 ± 0.52 µM; Rate of Tb+MAP Polymerization (dA355/dt) [1]: 237 ± 55%; inhibition at 20 µM (porcine liver CES): 5.2 ± 1.2%; Ki [2]: 113 ± 10.4 µM; Rate of Ca2+-Induced Mitochondrial Swelling (dA620/dt) [3]: 42 ± 21%; inhibition at 20 µM (human erythrocyte AChE): 7.1 ± 0.5%; Ki [4]: 63.5 ± 5.8 µM

Q: Which IC50 (porcine liver CES; 5 min incubation, mean ± SEM, n = 3) does the source give for `O=[N+]([O-])c1ccc(OP(=O)(O)Oc2ccc([N+](=O)[O-])cc2)cc1` [BNPP, bis-4-nitrophenyl phosphate, reference compound] here?
A: 1.8 ± 0.11 µM

Q: How did the inhibition at 20 µM (equine serum BChE; read-out: % of inhibition of BChE with 20 µM concentration of the compound, 20 µM compound) turn out when `CC12CC3CC(C)(C1)CC(N)(C3)C2` [memantine, reference compound] was run?
A: 13.7 ± 1.5%

Q: What about the “Rate of Tb+MAP Polymerization (dA355/dt)” value [1] of the same compound?
A: 89 ± 7%

Q: What about the inhibition at 20 µM (porcine liver CES) of the same compound?
A: 3 ± 0.4%

Q: And the “Rate … (dA620/dt)” value [3]?
A: 70 ± 9%

Q: And the inhibition at 20 µM (human erythrocyte AChE)?
A: 1.3 ± 0.2%
